In US12139520B2 (priority 2020, dated 2024):
Numbered stars: 1 amine (or outer) side, 2 acyl side, 3 side chain; on linkers, the order of the positions; unused ones are H or OH. Bridge positions count the residues as written; N and C are the ends. Square brackets hold non-standard residues; d marks the D form. Peptide text beside a SMILES is read from it. * marks the point of attachment. C20 diacid = O=C(O)CCCCCCCCCCCCCCCCCCC(=O)*; γGlu = O=C(O)[C@H](CCC(=O)[*:2])N[*:1]; Hyp = O=C(O)[C@@H]1C[C@@H](O)CN1

Columns and labels:
[1] = target: T1, hAMY3 receptor (Homo sapiens, UniProt O60896+P30988); assay: cAMP assay for in vitro receptor activation, hAMY3-R; assay type: cell-based; conditions: cAMP assay, hAMY3 receptor; read-out: hAMY3R EC50
T1 sequence (P30988 25-474): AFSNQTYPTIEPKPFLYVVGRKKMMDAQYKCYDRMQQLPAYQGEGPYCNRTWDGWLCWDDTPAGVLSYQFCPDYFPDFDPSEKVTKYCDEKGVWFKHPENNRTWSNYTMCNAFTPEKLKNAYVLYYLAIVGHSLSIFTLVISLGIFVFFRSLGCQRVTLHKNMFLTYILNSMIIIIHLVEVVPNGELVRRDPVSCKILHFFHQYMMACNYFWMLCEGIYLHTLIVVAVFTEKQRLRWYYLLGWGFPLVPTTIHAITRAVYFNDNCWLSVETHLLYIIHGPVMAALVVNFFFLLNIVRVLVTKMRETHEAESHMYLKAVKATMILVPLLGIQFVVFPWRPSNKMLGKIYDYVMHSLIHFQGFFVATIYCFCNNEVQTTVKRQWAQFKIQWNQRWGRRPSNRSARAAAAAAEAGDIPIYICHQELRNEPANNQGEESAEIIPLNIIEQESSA
T1 sequence (O60896 24-148 partner): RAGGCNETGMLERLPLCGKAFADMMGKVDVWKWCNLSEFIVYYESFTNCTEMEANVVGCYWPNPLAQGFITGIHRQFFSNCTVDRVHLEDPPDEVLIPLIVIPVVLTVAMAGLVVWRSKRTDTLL
Procedure, shortened: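 Monoclonal cell line stably overexpressing hAMY3 receptor, plated in DPBS with 0.05% casein and 0.5 mM IBMX, was stimulated with graded compound doses for 30 min at room temperature. cAMP accumulation was read by time-resolved FRET one hour after adding detection reagents.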

[2] = target: hAM1 receptor (Homo sapiens, UniProt O60895+Q16602); assay: cAMP assay for in vitro receptor activation, hAM1-R; assay type: cell-based; conditions: cAMP assay, hAM1 receptor; read-out: hAM1R EC50
Procedure: General Protocols for cAMP Assays for Measuring In Vitro Receptor Activation
Cells stably overexpressing the hAM1 receptor were obtained from Ogeda (now Astellas Pharma), sub-cloned and a monoclonal cell-line with an appropriate assay-window was expanded, aliquoted and frozen. An aliquot was thawed and plated in DPBS with 0.05% casein and 0.5 mM IBMX as 8000 cells/well in a 384-well format.

Sequence of hAM1 receptor (Q16602 23-461): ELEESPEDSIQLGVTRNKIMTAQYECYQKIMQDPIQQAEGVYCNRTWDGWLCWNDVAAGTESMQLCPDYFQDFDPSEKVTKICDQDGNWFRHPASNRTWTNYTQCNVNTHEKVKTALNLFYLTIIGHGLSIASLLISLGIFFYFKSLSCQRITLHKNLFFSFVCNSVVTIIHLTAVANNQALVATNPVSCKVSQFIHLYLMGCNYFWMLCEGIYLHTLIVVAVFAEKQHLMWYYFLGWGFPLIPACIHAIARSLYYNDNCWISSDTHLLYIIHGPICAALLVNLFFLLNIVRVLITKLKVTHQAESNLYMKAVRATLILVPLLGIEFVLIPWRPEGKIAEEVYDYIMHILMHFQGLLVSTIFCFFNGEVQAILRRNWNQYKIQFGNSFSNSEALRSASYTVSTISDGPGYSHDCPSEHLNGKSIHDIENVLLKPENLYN
Sequence of hAM1 receptor (O60895 43-175 partner): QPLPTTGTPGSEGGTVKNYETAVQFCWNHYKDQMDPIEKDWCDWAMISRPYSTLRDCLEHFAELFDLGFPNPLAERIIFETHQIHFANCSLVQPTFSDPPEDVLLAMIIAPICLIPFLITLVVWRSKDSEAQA

SMILES	EC50 [1] [nM]	EC50 [2] [nM]
CC[C@H](C)[C@H](NC(=O)[C@H](C)NC(=O)CNC(=O)[C@H](Cc1ccccc1)NC(=O)[C@H](CC(N)=O)NC(=O)[C@H](CC(N)=O)NC(=O)[C@H](CO)NC(=O)[C@H](CO)NC(=O)[C@H](Cc1c[nH]cn1)NC(=O)[C@@H](NC(=O)[C@H](CC(C)C)NC(=O)[C@H](Cc1ccccc1)NC(=O)[C@H](CC(N)=O)NC(=O)[C@H](C)NC(=O)[C@H](CC(C)C)NC(=O)[C@H](CCCNC(=N)N)NC(=O)[C@H](CCC(N)=O)NC(=O)[C@@H](NC(=O)[C@H](C)NC(=O)[C@@H]1CSSC[C@H](NC(=O)[C@@H](N)CCCCN)C(=O)N[C@@H](CC(N)=O)C(=O)N[C@@H]([C@@H](C)O)C(=O)N[C@@H](C)C(=O)N[C@@H]([C@@H](C)O)C(=O)N1)[C@@H](C)O)C(C)C)C(=O)N[C@@H](CC(C)C)C(=O)N1CCC[C@H]1C(=O)N[C@@H](CO)C(=O)N[C@H](C(=O)N[C@@H](CCCCN)C(=O)N[C@H](C(=O)NCC(=O)N1CCC[C@H]1C(=O)N[C@@H](CC(N)=O)C(=O)NCC(=O)N[C@@H](Cc1ccc(O)cc1)C(N)=O)C(C)C)[C@@H](C)O [compound 149] (H-KCNTATCATQRLANFLVHSSNNFGAILPSTKVGPNGY-NH2; disulfide 2-7; N-terminus assumed)	0.04	> 5000
CC[C@H](C)[C@H](NC(=O)[C@H](CCC(N)=O)NC(=O)[C@H](CCC(=O)O)NC(=O)[C@H](C)NC(=O)[C@H](CC(C)C)NC(=O)[C@H](CCCNC(=N)N)NC(=O)[C@H](CCC(N)=O)NC(=O)[C@@H](NC(=O)[C@@H](NC(=O)[C@@H]1CSSC[C@H](NC(=O)[C@H](CCCCN)NC(=O)CC[C@H](NC(=O)CCCCCCCCCCCCCCCCCCC(=O)O)C(=O)O)C(=O)N[C@@H](CC(N)=O)C(=O)N[C@@H]([C@@H](C)O)C(=O)N[C@@H](C)C(=O)N[C@@H]([C@@H](C)O)C(=O)N1)[C@@H](C)O)C(C)C)C(=O)N[C@@H](C)C(=O)N[C@@H](CCC(N)=O)C(=O)N[C@@H](Cc1ccccc1)C(=O)N[C@H](C(=O)N[C@@H](CC(=O)O)C(=O)N[C@@H](CCCCN)C(=O)N[C@@H](CC(=O)O)C(=O)N[C@@H](CCCCN)C(=O)N[C@@H](CC(=O)O)C(=O)N1CCC[C@H]1C(=O)N[C@H](C(=O)N[C@@H](C)C(=O)N1CCC[C@H]1C(=O)N1CCC[C@H]1C(=O)N[C@H](C(=O)N[C@@H](CC(N)=O)C(=O)N[C@H](C(=O)NCC(=O)N[C@@H](CO)C(=O)N[C@@H](CC(N)=O)C(=O)NCC(=O)N1C[C@H](O)C[C@H]1C(N)=O)C(C)C)[C@@H](C)O)C(C)C)[C@@H](C)O [compound 144] ({C20 diacid-γGlu}-KCNTATCTVQRLAEQIAQFTDKDKDPVAPPTNVGSNG[Hyp]-NH2; disulfide 2-7)	0.038	> 5000
CC[C@H](C)[C@H](NC(=O)[C@H](CCC(N)=O)NC(=O)[C@H](CCC(=O)O)NC(=O)[C@H](C)NC(=O)[C@H](CC(C)C)NC(=O)[C@H](CCCNC(=N)N)NC(=O)[C@H](CCC(N)=O)NC(=O)[C@@H](NC(=O)[C@@H](NC(=O)[C@@H]1CSSC[C@H](NC(=O)[C@H](CCCCN)NC(=O)CC[C@H](NC(=O)CCCCCCCCCCCCCCCCCCC(=O)O)C(=O)O)C(=O)N[C@@H](CC(N)=O)C(=O)N[C@@H]([C@@H](C)O)C(=O)N[C@@H](C)C(=O)N[C@@H]([C@@H](C)O)C(=O)N1)[C@@H](C)O)C(C)C)C(=O)N[C@@H](Cc1ccc(O)cc1)C(=O)N[C@@H](CCC(N)=O)C(=O)N[C@@H](Cc1ccccc1)C(=O)N[C@H](C(=O)N[C@@H](C)C(=O)N[C@@H](CCCCN)C(=O)N[C@@H](CC(=O)O)C(=O)N[C@@H](CCCCN)C(=O)N[C@@H](CC(=O)O)C(=O)N[C@@H](CC(N)=O)C(=O)N[C@H](C(=O)N[C@@H](C)C(=O)N1CCC[C@H]1C(=O)N1CCC[C@H]1C(=O)N[C@H](C(=O)N[C@@H](CC(N)=O)C(=O)N[C@H](C(=O)NCC(=O)N[C@@H](CO)C(=O)N[C@@H](CC(N)=O)C(=O)NCC(=O)N1C[C@H](O)C[C@H]1C(N)=O)C(C)C)[C@@H](C)O)C(C)C)[C@@H](C)O [compound 106] ({C20 diacid-γGlu}-KCNTATCTVQRLAEQIYQFTAKDKDNVAPPTNVGSNG[Hyp]-NH2; disulfide 2-7)	0.018	> 5000

Compounds with a lower EC50 [1], results first:

EC50 [1] [nM]	EC50 [2] [nM]	SMILES
0.008	> 5000	CC[C@H](C)[C@H](NC(=O)[C@H](C)NC(=O)CNC(=O)[C@H](Cc1ccccc1)NC(=O)[C@H](CC(N)=O)NC(=O)[C@H](CC(N)=O)NC(=O)[C@H](CO)NC(=O)[C@H](CO)NC(=O)[C@H](Cc1c[nH]cn1)NC(=O)[C@@H](NC(=O)[C@H](CC(C)C)NC(=O)[C@H](Cc1ccccc1)NC(=O)[C@H](CC(N)=O)NC(=O)[C@H](C)NC(=O)[C@H](CC(C)C)NC(=O)[C@H](CCCNC(=N)N)NC(=O)[C@H](CCC(N)=O)NC(=O)[C@@H](NC(=O)[C@H](C)NC(=O)[C@@H]1CSSC[C@H](NC(=O)[C@@H](N)CCCCN)C(=O)N[C@@H](CC(N)=O)C(=O)N[C@@H]([C@@H](C)O)C(=O)N[C@@H](C)C(=O)N[C@@H]([C@@H](C)O)C(=O)N1)[C@@H](C)O)C(C)C)C(=O)N[C@@H](CC(C)C)C(=O)N1CCC[C@H]1C(=O)N[C@@H](CCCNC(=N)N)C(=O)N[C@H](C(=O)N[C@@H](CCCCN)C(=O)N[C@H](C(=O)NCC(=O)N[C@@H](CO)C(=O)N[C@@H](CC(N)=O)C(=O)NCC(=O)N[C@@H](Cc1ccc(O)cc1)C(N)=O)C(C)C)[C@@H](C)O [compound 19] (H-KCNTATCATQRLANFLVHSSNNFGAILPRTKVGSNGY-NH2; disulfide 2-7)
0.015	> 5000	CC[C@H](C)[C@H](NC(=O)[C@H](CCC(N)=O)NC(=O)[C@H](Cc1c[nH]cn1)NC(=O)[C@H](C)NC(=O)[C@H](CC(C)C)NC(=O)[C@H](CCCNC(=N)N)NC(=O)[C@H](CCC(N)=O)NC(=O)[C@@H](NC(=O)[C@@H](NC(=O)[C@@H]1CSSC[C@H](NC(=O)[C@H](CCCCN)NC(=O)CC[C@H](NC(=O)CCCCCCCCCCCCCCCCCCC(=O)O)C(=O)O)C(=O)N[C@@H](CC(N)=O)C(=O)N[C@@H]([C@@H](C)O)C(=O)N[C@@H](C)C(=O)N[C@@H]([C@@H](C)O)C(=O)N1)[C@@H](C)O)C(C)C)C(=O)N[C@@H](C)C(=O)N[C@@H](CCC(N)=O)C(=O)N[C@@H](Cc1ccccc1)C(=O)N[C@H](C(=O)N[C@@H](CC(=O)O)C(=O)N[C@@H](CCCCN)C(=O)N[C@@H](CC(N)=O)C(=O)N[C@@H](CCCCN)C(=O)N[C@@H](CC(=O)O)C(=O)N[C@@H](CC(N)=O)C(=O)N[C@H](C(=O)N[C@@H](C)C(=O)N1CCC[C@H]1C(=O)N1CCC[C@H]1C(=O)N[C@H](C(=O)N[C@@H](CC(N)=O)C(=O)N[C@H](C(=O)NCC(=O)N[C@@H](CO)C(=O)N[C@@H](CC(N)=O)C(=O)NCC(=O)N1C[C@H](O)C[C@H]1C(N)=O)C(C)C)[C@@H](C)O)C(C)C)[C@@H](C)O [compound 87] ({C20 diacid-γGlu}-KCNTATCTVQRLAHQIAQFTDKNKDNVAPPTNVGSNG[Hyp]-NH2; disulfide 2-7)
0.017	> 5000	CC[C@H](C)[C@H](NC(=O)[C@H](CCC(N)=O)NC(=O)[C@H](CCC(=O)O)NC(=O)[C@H](C)NC(=O)[C@H](CC(C)C)NC(=O)[C@H](CCCNC(=N)N)NC(=O)[C@H](CCC(N)=O)NC(=O)[C@@H](NC(=O)[C@@H](NC(=O)[C@@H]1CSSC[C@H](NC(=O)[C@H](CCCCN)NC(=O)CC[C@H](NC(=O)CCCCCCCCCCCCCCCCCCC(=O)O)C(=O)O)C(=O)N[C@@H](CC(N)=O)C(=O)N[C@@H]([C@@H](C)O)C(=O)N[C@@H](C)C(=O)N[C@@H]([C@@H](C)O)C(=O)N1)[C@@H](C)O)C(C)C)C(=O)N[C@@H](Cc1ccc(O)cc1)C(=O)N[C@@H](CCC(N)=O)C(=O)N[C@@H](Cc1ccccc1)C(=O)N[C@H](C(=O)N[C@@H](CC(=O)O)C(=O)N[C@@H](CCCCN)C(=O)N[C@@H](CC(=O)O)C(=O)N[C@@H](CCCCN)C(=O)N[C@@H](CC(=O)O)C(=O)N[C@@H](CCC(N)=O)C(=O)N[C@H](C(=O)N[C@@H](C)C(=O)N1CCC[C@H]1C(=O)N1CCC[C@H]1C(=O)N[C@H](C(=O)N[C@@H](CC(N)=O)C(=O)N[C@H](C(=O)NCC(=O)N[C@@H](CO)C(=O)N[C@@H](CC(N)=O)C(=O)NCC(=O)N1C[C@H](O)C[C@H]1C(N)=O)C(C)C)[C@@H](C)O)C(C)C)[C@@H](C)O [compound 100] ({C20 diacid-γGlu}-KCNTATCTVQRLAEQIYQFTDKDKDQVAPPTNVGSNG[Hyp]-NH2; disulfide 2-7)
